According to patent US8318759B2, “Pyrrolidine derivatives as NK3 receptor antagonists” (Hoffmann-La Roche Inc., priority 2009, dated 2012):

Target: T1, human NK3 receptor (Homo sapiens, UniProt P29371)
T1 construct: expressed in transfected cells; host or cells: HEK293 cells (transient expression), membranes
T1 sequence (P29371 1-465): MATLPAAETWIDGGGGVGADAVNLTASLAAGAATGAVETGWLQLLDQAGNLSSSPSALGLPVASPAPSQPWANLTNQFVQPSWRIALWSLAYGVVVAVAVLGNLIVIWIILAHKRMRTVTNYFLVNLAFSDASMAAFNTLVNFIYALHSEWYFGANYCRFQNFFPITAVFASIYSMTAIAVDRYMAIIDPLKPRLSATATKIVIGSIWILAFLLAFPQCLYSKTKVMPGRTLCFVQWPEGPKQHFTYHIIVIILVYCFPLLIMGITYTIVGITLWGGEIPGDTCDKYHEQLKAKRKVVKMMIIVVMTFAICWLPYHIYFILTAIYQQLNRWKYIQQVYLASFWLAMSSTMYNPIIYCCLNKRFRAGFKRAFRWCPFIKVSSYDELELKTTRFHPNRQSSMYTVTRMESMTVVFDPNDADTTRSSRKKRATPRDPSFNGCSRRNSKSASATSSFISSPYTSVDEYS
Assay: [3H]SR142801 competition binding assay
Settings: membrane from HEK293 cells transiently expressing recombinant human NK3 receptor; radioligand [3H]SR142801; Ki from IC50 by Cheng-Prussoff equation
Experimental: [^3H]SR142801 Competition Binding Assay
hNK3 receptor binding experiment were performed using [^3H]SR142801 (Catalog No. TRK1035, specific activity: 74.0 Ci/mmol, Amersham, GE Healthcare UK limited, Buckinghamshire, UK) and membrane isolated from HEK293 cells transiently expressing recombinant human NK3 receptor. After thawing, the membrane homogenates were centrifuged at 48,000×g for 10 min at 4° C., the pellets were resuspended in the 50 mM Tris-HCl, 4 mM MnCl2, 1 μM phosphoramidon, 0.1% BSA binding buffer at pH 7.4 to a final assay concentration of 5 μg protein/well. […] At the end of the incubation, membranes were filtered onto unitfilter (96-well white microplate with bonded GF/C filter preincubated 1 h in 0.3% PEI+0.3% BSA, Packard BioScience, Meriden, Conn.) with a Filtermate 196 harvester (Packard BioScience) and washed 4 times with ice-cold 50 mM Tris-HCl, pH 7.4 buffer. Nonspecific binding was measured in the presence of 10 μM SB222200 for both radioligands. The radioactivity on the filter was counted (5 min) on a Packard Top-count microplate scintillation counter with quenching correction after addition of 45 μl of microscint 40 (Canberra Packard S. A., Zürich, Switzerland) and shaking for 1 h. Inhibition curves were fitted according to the Hill equation: y=100/(1+(x/IC50)^nH), where nH=slope factor using Excel-fit 4 software (Microsoft). IC50 values were derived from the inhibition curve and the affinity constant (Ki) values were calculated using the Cheng-Prussoff equation Ki=IC50/(1+[L]/KD) where [L] is the concentration of radioligand and KD is its dissociation constant at the receptor, derived from the saturation isotherm. All experiments were performed in duplicate and the mean±standard error (SEM) of the individual Ki values was calculated.

Structure (SMILES) | Ki [nM]
CS(=O)(=O)N1CCN(C(=O)N2C[C@H](CNc3ccc(C#N)cn3)[C@@H](c3ccc(Cl)c(Cl)c3)C2)CC1 [Example 8] | 71.1
Cc1cc(C(=O)N2C[C@H](CN(C)c3ncc(C(F)(F)F)cn3)[C@@H](c3ccc(Cl)c(Cl)c3)C2)cnn1 [Example 60, ((3S,4S)-3-(3,4-Dichloro-phenyl)-4-{[methyl-(5-trifluoromethyl-pyrimidin-2-yl)-amino]-methyl}-pyrrolidin-1-yl)-(6-methyl-pyridazin-4-yl)-methanone] | 15.8
CC(Nc1ccc(C#N)cn1)[C@H]1CN(C(=O)N2CCN(S(C)(=O)=O)CC2)C[C@@H]1c1ccc(Cl)c(Cl)c1 (mixture of isomers) [Example 36, (3SR,4RS) 6-{1-(RS)-[4-(3,4-Dichloro-phenyl)-1-(4-methanesulfonyl-piperazine-1-carbonyl)-pyrrolidin-3-yl]-ethylamino}-nicotinonitrile and (3SR,4RS) 6-{1-(SR)-[4-(3,4-Dichloro-phenyl)-1-(4-methanesulfonyl-piperazine-1-carbonyl)-pyrrolidin-3-yl]-ethylamino}-nicotinonitrile] | 68.2
CC1(C(=O)N2CCC(C(=O)N3CC(CNc4ccc(Cl)cn4)C(c4ccc(Cl)cc4)C3)CC2)CC1 (racemic) [Example 41, (3SR,4RS) {3-(4-Chloro-phenyl)-4-[(5-chloro-pyridin-2-ylamino)-methyl]-pyrrolidin-1-yl}-[1-(1-methyl-cyclopropanecarbonyl)-piperidin-4-yl]-methanone] | 86.3
CN(C[C@H]1CN(C(=O)C2CCN(C(=O)C3(C)CC3)CC2)C[C@@H]1c1ccc(Cl)c(Cl)c1)c1ccc(Cl)cn1 [Example 66, {4-[(3S,4S)-3-{[(5-Chloro-pyridin-2-yl)-methyl-amino]-methyl}-4-(3,4-dichloro-phenyl)-pyrrolidine-1-carbonyl]-piperidin-1-yl}-(1-methyl-cyclopropyl)-methanone] | 47
N#Cc1ccc(C(=O)N2C[C@H](CNc3ncc(Cl)cn3)[C@@H](c3ccc(Cl)c(Cl)c3)C2)cn1 (racemic) [Example 26] | 46.3
CS(=O)(=O)N1CCN(C(=O)N2C[C@H](CNc3ccc(C(F)(F)F)cc3)[C@@H](c3ccc(Cl)c(Cl)c3)C2)CC1 (racemic) [Example 28] | 58.5
O=C(c1ccnnc1)N1C[C@H](CNc2ccc(C(F)(F)F)cn2)[C@@H](c2ccc(Cl)c(Cl)c2)C1 (racemic) [Example 22] | 98.6
CN(C[C@H]1CN(C(=O)N2CCN(S(C)(=O)=O)CC2)C[C@@H]1c1ccc(Cl)c(Cl)c1)c1ccc(C(F)(F)F)cn1 (racemic) [Example 15] | 78.8

The next lines start with the values.

Ki [nM] | Structure (SMILES)
2.2 | CS(=O)(=O)N1CCN(C(=O)N2C[C@H](CSc3ccc(Cl)cn3)[C@@H](c3ccc(Cl)c(Cl)c3)C2)CC1 (racemic) [Example 6, (3SR,4RS)-[3-(5-Chloro-pyridin-2-ylsulfanylmethyl)-4-(3,4-dichloro-phenyl)-pyrrolidin-1-yl]-(4-methanesulfonyl-piperazin-1-yl)-methanone]
7.5 | CC(=O)N1CCC(C(=O)N2C[C@H](CNc3ncc(C(F)(F)F)cn3)[C@@H](c3ccc(Cl)c(Cl)c3)C2)CC1 (racemic) [Example 33]
1.8 | CC1(C(=O)N2CCC(C(=O)N3C[C@H](CNc4ncc(C(F)(F)F)cn4)[C@@H](c4ccc(Cl)c(Cl)c4)C3)CC2)CC1 [Example 57, {(3S,4S)-3-(3,4-Dichloro-phenyl)-4-[(5-trifluoromethyl-pyrimidin-2-ylamino)-methyl]-pyrrolidin-1-yl}-[1-(1-methyl-cyclopropanecarbonyl)-piperidin-4-yl]-methanone]
8.9 | CC1(C(=O)N2CCC(C(=O)N3C[C@H](CNc4ccc(C(F)(F)F)cn4)[C@@H](c4ccc(Cl)c(Cl)c4)C3)CC2)CC1 (racemic) [Example 21]
6.2 | CC1(C(=O)N2CCC(C(=O)N3C[C@H](CNc4ncc(C(F)(F)F)cn4)[C@@H](c4ccc(Cl)c(Cl)c4)C3)CC2)CC1 (racemic) [Example 34]
10.3 | CC(=O)N1CCC(C(=O)N2C[C@H](CNc3ccc(C(F)(F)F)cn3)[C@@H](c3ccc(Cl)c(Cl)c3)C2)CC1 (racemic) [Example 19]
8.4 | CN(C[C@H]1CN(C(=O)C2CCN(C(=O)C3(C)CC3)CC2)C[C@@H]1c1ccc(Cl)c(Cl)c1)c1ccc(C(F)(F)F)cn1 [Example 62, [4-((3S,4S)-3-(3,4-Dichloro-phenyl)-4-{[methyl-(5-trifluoromethyl-pyridin-2-yl)-amino]-methyl}-pyrrolidine-1-carbonyl)-piperidin-1-yl]-(1-methyl-cyclopropyl)-methanone]

Test system: not given
Assay: not given
Settings: phase II trial; altered behavior, delusion, hallucinations, extreme emotions, excited motor activity, incoherent speech; cited from earlier work

Structure (SMILES) | activity on positive symptoms of schizophrenia
CC(=O)N(C)C1(c2ccccc2)CCN(CCC[C@]2(c3ccc(Cl)c(Cl)c3)CCCN(C(=O)c3ccccc3)C2)CC1 [SR 142,801, Osanetant] | active

Same assay, conditions: phase II trial; depression, anhedonia, social isolation, memory and attention deficits; cited from earlier work

Structure (SMILES) | activity in the treatment of negative symptoms of schizophrenia
CC(=O)N(C)C1(c2ccccc2)CCN(CCC[C@]2(c3ccc(Cl)c(Cl)c3)CCCN(C(=O)c3ccccc3)C2)CC1 [SR 142,801, Osanetant] | inactive
